{"source": "patent US20230203471A1", "about": "“METHOD AND PLATFORM FOR DISRUPTING INTRACELLULAR MICROTUBULES” (National Tsing Hua University, priority 2021, published 2023)", "key": {"[1]": {"tested_on": "EMTB-CFP-FRB-labeled MTs in HeLa cells", "experiment": "Rapamycin-induced translocation of FKBP-tagged proteins onto EMTB-CFP-FRB-labeled MTs (FRET, live-cell imaging)", "assay_type": "cell-based", "conditions": "100 nM rapamycin, FRET signal", "experimental": "(§1) The procedures of live-cell imaging are as follows. Live transfected cells cultured on poly(d-lysine)-coated glass coverslips (Hecht Assistent) were treated with either 100 nM rapamycin for rapid induction of protein dimerization and translocation or MT-targeting agents (10 µM nocodazole or 500 µM colchicine) during imaging. Live-cell imaging was conducted on a Nikon T1 inverted fluorescence microscope (Nikon) with a 60× oil objective (Nikon), a Prime camera (Photometrics), and 37° C., 5% CO2 heat stage (Live Cell Instrument). Rapid recruitment of proteins of interest (POIs) was imaged at 5- or 10-sec intervals, whereas the process of MT disruption was imaged at 1-min intervals. Images were obtained using Nikon NIS-Elements AR software and processed with Huygens Deconvolution Software (Scientific Volume Imaging). Image analysis was mainly performed with Nikon NIS-Elements AR software.\nFIGS. 1B and 1C show the MT-binding domain of ensconsin-cyan fluorescent protein-FKBP-rapamycin binding domain (EMTB—CFP—FRB) localizes to cytosolic MTs. […] Scale bar, 10 µm. […] Subsequently, the addition of rapamycin to HeLa cells led to the rapid translocation of yellow fluorescent protein-tagged FKBP (YFP—FKBP) onto EMTB—CFP—FRB-labeled MTs as evidenced by an increased FRET (fluorescence resonance energy transfer) signal on MTs (T½ of translocation: 5.73 ± 0.54 sec; FIGS. 1D and 1E). […]"}, "[2]": {"tested_on": "cytosolic MTs in HeLa cells", "experiment": "Immunofluorescence staining of α-tubulin in HeLa cells expressing spastin constructs", "assay_type": "cell-based", "conditions": "HeLa cells co-transfected with EMTB-CFP-FRB", "experimental": "(§2) The procedures of immunofluorescence staining are as follows. Cells cultured in borosilicate glass Lab-Tek eight-well chambers (Nunc) were fixed in 4% paraformaldehyde (Electron Microscopy Sciences) at room temperature for 15 min. Fixed cells were permeabilized with 0.1% Triton X-100 and then incubated in blocking solution (phosphate-buffered saline with 2% bovine serum albumin) for 30 min at room temperature. To label cytosolic MTs, primary ciliary membrane, and axonemal MTs, cells were incubated for 1 hr at room temperature with mouse antibody against α-tubulin (1:500; Sigma Aldrich, T6199), rabbit antibody against Arl13b (1:500; Proteintech, 17711-1-AP), mouse antibody against glutamylated tubulin (1:100; Adipogen, AG-20B-0020-C100), mouse antibody against acetylated tubulin (1:500; Sigma Aldrich, T7451), rat antibody against tyrosinated tubulin (1:100; Sigma Aldrich, MAB1864), and mouse antibody against detyrosinated tubulin (1:100; MERCK, AB3201) each of which was diluted in blocking solution. Cells were then washed with PBS and incubated for 1 hr with appropriate secondary antibodies (1:1000 dilution; Thermo Fisher) at room temperature.\nSpastin is a MT-cleaving enzyme that is ubiquitous in nearly all eukaryotic cells. Expression of full-length spastin (SpastinFL-YFP; the amino acid sequence of spastin is SEQ ID NO: 1) and truncated spastin without the N-terminal 1-140 amino acids (dNSpastin-YFP) in HeLa cells removed significant amounts of cytosolic MTs, 47.45% and 42.86%, respectively, relative to YFP-transfected control cells (See FIGS. 2A to 2C). This means that both full-length spastin and truncated spastin without N-terminal 1-140 amino acids have the effect on disrupting microtubules. FIGS. 2A to 2C show the microtubule cleavage activity of artificially engineered spastin enzyme. […] The dotted line on the right indicates the periphery of the cell that expresses spastin. […] SpastinFL expressed in cells can disrupt the intracellular microtubules. Making SpastinFL be located in the cytosol, truncated spastin would also disrupt the intracellular microtubules, so it would also be located in the cytosol. […] The truncated spastin is used in the subsequent experiments. […] Compared with the YFP control group, both SpastinFL-YFP and dNSpastrin-YFP can disrupt about 40% of the microtubules. Thus the N-terminal fragment (1-140 amino acids) was dispensable for Spastin-mediated MT severing. […]"}, "[3]": {"tested_on": "intracellular microtubules in HeLa cells", "experiment": "Live-cell imaging of MT disruption (MT filament area) in transfected HeLa cells", "assay_type": "cell-based", "conditions": "HeLa cells co-transfected with EMTB-CFP-FRB, upon rapamycin (100 nM) treatment", "experimental": "as §1\nThe procedures of measurement of MT filament area are as follows. The MT filaments in living cells were labeled with EMTB-CFP-FRB and imaged in real time (RAW image). The rolling ball correction was used to remove the cytosol background from the RAW images, which was carried out with the Nikon NIS-Elements AR software. Images were processed to generate the binary MT filament pattern via the Otsu threshold and analyzed by Fiji software.\nFIGS. 2D and 2E show rapidly recruiting engineered spastins onto MTs. […] The top three layers are cells that simultaneously express EMTB-CFP-FRB and dNSpastin3Q-YFP-FKBP. The lower three layers are cells that simultaneously express EMTB-CFP-FRB and dNSpastin-YFP-FKBP-C2Lact. The color bar on the right indicates the brightness value represented by the color of the FRET signal. […] Data are shown as the mean ± S.E.M. It was noteworthy that MT disruption triggered by dNSpastin3Q-YFP-FKBP upon rapamycin treatment (T½ = 11.05 ± 1.52 min) was much faster than that of dNSpastin-YFP-FKBP-C2Lact upon rapamycin treatment (T½ = 53.08 ± 8.08 min), and treatment of two common MTAs, nocodazole (10 µM; T½ = 54.02 ± 10.29 min), colchicine (500 µM; T½ = 94.28 ± 8.63 min; see FIGS. 2F to 2J). […] In FIG. 2H, HeLa cells transfected with the indicated constructs were treated with nocodazole (Noc)([…], a type of MTA), colchicine (Col)(500 µM, a type of MTA), or rapamycin (Rapa)(100 nM); scale bar, 10 µm. […] Data are shown as the mean ± S.E.M. Student’s t-tests were performed, with the resulting p-values indicated."}, "[4]": {"tested_on": "tyrosinated MTs in COS7 cells", "experiment": "Targeting of TagRFP-FRB-A1AY1 and rapamycin-induced recruitment onto A1AY1-bound MTs", "assay_type": "cell-based, African green monkey", "experimental": "as §2\nMTs undergo various post-translational modification (PTMs) for spatiotemporally regulating their properties and functions. The inventors next turned efforts to precisely disrupt MTs with specific PTMs. […]"}, "[5]": {"biological_target": "T1, spastin (Mus musculus, UniProt Q9QYY8, K308Q/K309Q/K310Q)", "T1 construct": "expressed in transfected cells; host or cells: HeLa (CCL-2)", "T1 sequence (Q9QYY8 with tags, fused parts or gaps K308Q/K309Q/K310Q)": "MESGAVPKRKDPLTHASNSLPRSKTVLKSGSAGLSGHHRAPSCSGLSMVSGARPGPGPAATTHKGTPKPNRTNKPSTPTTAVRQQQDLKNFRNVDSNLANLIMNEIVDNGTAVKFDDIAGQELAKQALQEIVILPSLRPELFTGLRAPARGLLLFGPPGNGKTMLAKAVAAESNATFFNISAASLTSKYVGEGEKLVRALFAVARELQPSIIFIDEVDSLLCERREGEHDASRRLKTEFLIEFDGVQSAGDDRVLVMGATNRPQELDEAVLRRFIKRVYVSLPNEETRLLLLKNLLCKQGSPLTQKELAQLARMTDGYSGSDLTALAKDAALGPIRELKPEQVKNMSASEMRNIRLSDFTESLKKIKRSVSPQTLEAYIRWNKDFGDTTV", "experiment": "Reversal of MT disruption by spastin inhibition and MT regrowth in HeLa cells", "assay_type": "cell-based", "conditions": "spastazoline 10 µM added after 28 min rapamycin; dNSpastin3Q-YFP-FKBP and EMTB-CFP-FRB HeLa cells", "experimental": "FIGS. 2S to 2U show inhibition of spastin activity reverses MT disruption. In FIG. 2S, HeLa cells co-transfected with EMTB—CFP—FRB (black) and dNSpastin3Q-YFP-FKBP (green) were pre-treated with rapamycin for 28 min to induce acute MT disassembly; spastazoline (10 µM), a spastin inhibitor, was then added to the cultures to halt the MT disruption system; arrows indicate the centrosome-derived MTs; scale bar, 10 µm. […] Data (red) are shown as the mean ± SD. A Student’s t-test was performed to generate the indicated p-value.\nIntriguingly, nascent MTs from the fragments derived from dNspastin3Q-mediated cleavage assembled at a polymerization rate of 0.92 ± 0.04 µm/sec, which was slightly slower than the regrowth rate of 1.17 ± 0.07 µm/sec for MTs from centrosomes (see FIG. 2U). […] In particular, microtubule filaments are composed of microtubule molecules. If they are only disassembled into microtubule molecules and the raw materials are still there, they would have the opportunity to quickly assemble them back. But if the microtubule molecules are degraded and the raw materials are gone, they can’t be quickly reassembled. In summary, rapid recruitment of dNSpastin3Q-YFP-FKBP onto MTs efficiently triggered MT disassembly in living cells upon dimerization induction."}, "[6]": {"biological_target": "TagRFP-FRB-A1AY1 (Artificial Sequence)", "experiment": "live-cell imaging, addition of rapamycin"}}, "data": [{"molecule": "dNSpastin-YFP-FKBP-C2Lact: truncated spastin tagged with YFP-FKBP and plasma membrane-binding sequence C2Lact", "values": [{"measurement": "T½ of translocation from cytosol onto EMTB-CFP-FRB-labeled MTs", "setting": "[1]", "result": "0.924 ± 0.14", "unit": "min"}, {"measurement": "MT disruption after rapamycin treatment", "setting": "[2]; 100 nM rapamycin 1 hr", "result": "robustly disrupted MTs"}, {"measurement": "MT-severing activity before rapamycin treatment", "setting": "[2]; 0.1% DMSO", "result": "low MT-severing activities"}, {"measurement": "T½ of MT disruption", "setting": "[3]", "result": "53.08 ± 8.08", "unit": "min"}]}, {"molecule": "TagCFP—FKBP: cyan fluorescent protein TagCFP-tagged FKBP [reference compound]", "values": [{"measurement": "T½ of recruitment onto TagRFP-FRB-A1AY1-bound MTs", "setting": "[4]; addition of rapamycin", "result": "1.078 ± 0.268", "unit": "min"}]}, {"molecule": "CC(C)[C@@H]1CN(c2nc(Nc3cc(C(C)(C)C)[nH]n3)c3cc[nH]c3n2)CCN1", "note": "[spastazoline, reference compound]", "values": [{"measurement": "effect of spastin inhibitor on rapamycin-mediated MT disruption", "setting": "[5]", "result": "swiftly reversed rapamycin-mediated acute MT disruption"}]}, {"molecule": "YFP—FKBP: yellow fluorescent protein-tagged FK506-binding protein [reference compound]", "values": [{"measurement": "T½ of translocation from cytosol onto EMTB-CFP-FRB-labeled MTs", "setting": "[1]", "result": "0.0955 ± 0.009", "unit": "min"}]}, {"molecule": "TagCFP, tagged FKBP (TagCFP-FKBP)", "values": [{"measurement": "T½ of recruitment", "setting": "[6]", "result": 1.08, "unit": "min"}]}, {"molecule": "TagRFP—FRB—A1AY1: A1AY1 (SEQ ID NO:16), targets tyrosinated MTs, tagged with FRB and red fluorescent protein TagRFP (protein) MVSKGEELIKENMHMKLYMEGTVNNHHFKCTSEGEGKPYEGTQTMRIKVVEGGPLPFAFDILATSFMYGSRTFINHTQGIPDFFKQSFPEGFTWERVTTYEDGGVLTATQDTSLQDGCLIYNVKIRGVNFPSNGPVMQKKTLGWEANTEMLYPADGGLEGRTDMALKLVGGGHLICNFKTTYRSKKPAKNLKMPSVYYVDHRLERIKEADKETYVEQHEVAVARYCDLPSKLGHKLNLYKILWHEMWHEGLEEASRLYFGERNVKGMFEVLEPLHAMMERGPQTLKETSFNQAYGRDLMEAQEWCRKYMKSGNVKDLLQAWDLYYHVFRRISKMATVKFKYKGEEKQVDISKILSVGRYGKLIHFLYDLGGGKAGMGMVSEKDAPKELLQMLEKQKK", "values": [{"measurement": "targeting of construct to MT subtypes", "setting": "[4]; COS7 cells, immunostaining", "result": "preferentially targeted to generic MTs and tyrosinated MTs but not to detyrosinated MTs"}]}]}
